Source: patent US20090286836A1, “Novel Compounds” (priority 2008, published 2009)
Where a name gives a salt, the structure may show the parent alone.

Columns and labels:
human NK3 receptor = target: T1, human NK3 receptor (Homo sapiens, UniProt P29371); assay: NK functional potency, FLIPR calcium release in U2OS cells (NKB as ligand); type: cell-based; conditions: BacMam human NK3, average of at least two determinations, read-out: NK3 pKi (functional potency, fpKi) (converted)
T1 construct: expressed in transfected cells; host or cells: human U2OS cells transiently transduced with recombinant BacMam virus
T1 sequence (P29371 1-465): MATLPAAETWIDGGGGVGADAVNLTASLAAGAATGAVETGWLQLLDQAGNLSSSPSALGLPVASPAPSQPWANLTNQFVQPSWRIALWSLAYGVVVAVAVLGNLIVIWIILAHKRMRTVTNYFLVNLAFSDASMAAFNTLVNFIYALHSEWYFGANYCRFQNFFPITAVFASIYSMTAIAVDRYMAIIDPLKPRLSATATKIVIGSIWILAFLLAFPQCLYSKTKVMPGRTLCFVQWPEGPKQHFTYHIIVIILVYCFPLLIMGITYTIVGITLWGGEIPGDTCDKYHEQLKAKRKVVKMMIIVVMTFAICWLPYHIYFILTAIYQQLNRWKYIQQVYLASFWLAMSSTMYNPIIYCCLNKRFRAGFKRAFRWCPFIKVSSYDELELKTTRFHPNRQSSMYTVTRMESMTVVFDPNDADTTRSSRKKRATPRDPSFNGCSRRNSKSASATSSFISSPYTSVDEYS
Description: (§1) Compounds of the invention were further characterised in a functional assay using FLIPR technology for the determination of their effect to inhibit the intracellular calcium release induced by interaction of NK receptors with its perspective ligands. Human U2OS cells transiently transduced with recombinant BacMam virus expressing human NK1, NK2 and NK3 receptors were used in the studies (see J. P. Condreay et al, Proc. Natl. Acad. Sci. USA 1999, 96(1): 127-132). Briefly, U2OS cells were harvested from tissue culture flasks, re-suspended to a cell density of 200-300K/ml and mixed with recombinant BacMam virus carrying NKR gene in a virus/cell ratio of 1% (v/v). 10K-15K cells/well were then seeded in 384-well Greiner bio-one plate in culture medium (DMEM with 10% FBS), incubated overnight in 5% CO2 at 37° C. After aspirating the medium, cells were loaded 18-24 hr later with cytoplasmic calcium indicator Fluo-4 Calcium 3 dye (Molecular Devices Co.) in 30 uL/well buffer (Hank's balanced salts with 20 mM Hepes) and incubated in CO2 at 37° C. for 60 minutes. 10 uL/well assay buffer (Hank's balanced salts with 20 mM Hepes) containing different concentrations of compounds were then added to the cells for 30 minutes incubation at 37° C. Finally, 10 uL/well of NKR ligands in assay buffer containing 0.1% BSA was added to the cells and fluorescence signal read on a FLIPR system. Substance P, NKA and NKB peptides were used as the ligands for NK1, NK2 and NK3 receptor, respectively. IC50 values of each compound were determined by an 11-point 3×-dilution inhibition curve. The potency each antagonist (fpKi) was calculated from pIC50 by the Cheng-Prusoff equation using EC50 of ligand determined in a separate experiment.
(§2) The compounds of Example 11, Examples 2, 4 and 6 were tested in the NK functional potency assay.

human NK1 receptor [1] = target: T2, human NK1 receptor (Homo sapiens, UniProt P25103); assay: NK functional potency, FLIPR calcium release in U2OS cells (Substance P as ligand); type: cell-based; parameters: expressed in transfected cells; host or cells: human U2OS cells transiently transduced with recombinant BacMam virus; conditions: BacMam human NK1, average of at least two determinations, read-out: NK1 pKi (functional potency, fpKi) (converted)
T2 sequence (P25103 whole entry): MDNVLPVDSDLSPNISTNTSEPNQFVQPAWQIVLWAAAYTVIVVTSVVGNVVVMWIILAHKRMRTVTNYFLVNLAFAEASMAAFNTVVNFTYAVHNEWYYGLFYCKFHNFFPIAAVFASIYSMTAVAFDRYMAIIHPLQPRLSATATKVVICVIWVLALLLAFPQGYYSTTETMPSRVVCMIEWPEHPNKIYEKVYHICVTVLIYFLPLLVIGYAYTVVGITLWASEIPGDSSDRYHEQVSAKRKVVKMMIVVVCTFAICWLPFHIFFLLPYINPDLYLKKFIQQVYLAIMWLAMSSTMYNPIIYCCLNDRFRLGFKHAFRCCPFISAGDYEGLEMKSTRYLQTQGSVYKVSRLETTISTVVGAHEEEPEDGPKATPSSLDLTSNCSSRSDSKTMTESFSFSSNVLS
Description: as §1, §2

human NK2 receptor = target: T3, human NK2 receptor (Homo sapiens, UniProt P21452); assay: NK functional potency, FLIPR calcium release in U2OS cells (NKA as ligand); type: cell-based; conditions: BacMam human NK2, average of at least two determinations, read-out: NK2 pKi (functional potency, fpKi) (converted)
T3 construct: expressed in transfected cells; host or cells: human U2OS cells transiently transduced with recombinant BacMam virus
T3 sequence (P21452 1-398): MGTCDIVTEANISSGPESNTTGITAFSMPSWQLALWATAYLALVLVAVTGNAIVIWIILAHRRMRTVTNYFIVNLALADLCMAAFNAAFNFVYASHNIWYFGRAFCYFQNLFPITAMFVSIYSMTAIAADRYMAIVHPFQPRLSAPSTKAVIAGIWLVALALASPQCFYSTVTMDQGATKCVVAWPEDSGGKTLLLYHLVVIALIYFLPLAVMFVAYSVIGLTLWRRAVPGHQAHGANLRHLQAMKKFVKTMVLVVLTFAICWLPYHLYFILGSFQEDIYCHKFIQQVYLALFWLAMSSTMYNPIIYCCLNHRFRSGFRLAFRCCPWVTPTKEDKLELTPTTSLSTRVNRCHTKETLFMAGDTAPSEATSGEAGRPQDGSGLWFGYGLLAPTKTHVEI
Description: as §1, with “After aspirating the medium, cells were loaded 18-24 hr later with cytoplasmic calcium indicator Fluo-4 Calcium 3 dye (Molecular Devices Co.) in 30 uL/well buffer (Hank's balanced salts with 20 mM Hepes) and incubated in CO2 at 37° C. for 60 minutes. 10 uL/well assay buffer (Hank's balanced salts with 20 mM Hepes) containing different concentrations of compounds were then added to the cells for 30 minutes incubation at 37° C.” left out, “Substance P, NKA and NKB peptides were used as the ligands for NK1, NK2 and NK3 receptor, respectively.” left out, “experiment. […]” for “experiment.”

NK1 receptor = target: T4, NK1 receptor (Meriones unguiculatus, UniProt Q5DUB1); assay: gerbil foot tapping model (GR73632-induced, icv); type: in vivo
T4 construct: from tissue; host or cells: living gerbils; central nervous system (icv agonist GR73632)
T4 sequence (Q5DUB1 whole entry): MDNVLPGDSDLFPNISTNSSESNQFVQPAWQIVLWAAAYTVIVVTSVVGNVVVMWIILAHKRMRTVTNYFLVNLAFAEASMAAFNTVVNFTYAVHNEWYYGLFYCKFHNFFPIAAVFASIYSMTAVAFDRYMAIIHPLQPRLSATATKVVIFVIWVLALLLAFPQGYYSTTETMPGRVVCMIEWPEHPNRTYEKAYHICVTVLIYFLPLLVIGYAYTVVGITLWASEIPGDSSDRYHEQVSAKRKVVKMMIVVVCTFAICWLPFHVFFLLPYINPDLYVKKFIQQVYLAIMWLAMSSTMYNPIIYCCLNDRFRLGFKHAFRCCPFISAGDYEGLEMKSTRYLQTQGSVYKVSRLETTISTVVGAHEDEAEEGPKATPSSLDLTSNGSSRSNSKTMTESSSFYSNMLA
Description: The ability of the compounds of the invention to penetrate the central nervous system and to bind at the NK1 receptor may be determined using the gerbil foot tapping model as described by Rupniak & Williams, Eur. Jour. of Pharmacol., 1994. Intracerebroventricular (icv) administration of the NK1 receptor agonist GR73632 (R. M. Hagan et al., Neuropeptides 1991, 19 (2), 127-135) a characteristic hind leg foot tapping (GFT) response in gerbils which can be inhibited by potent NK1 receptor antagonists. The gerbil foot tapping paradigm was carried out as follows; gerbils were dosed with compound of the invention, and following an appropriate pre-treatment time were anaesthetised using isofluorane/oxygen mixture. The skull was then exposed and 5 ul of GR73632 ([…].) was injected by insertion of a cuffed 25G needle to a depth of 4 mm below bregma, directly into the lateral ventricle (intracerebroventricular dosing). Immediately following the injection, gerbils were placed individually into a clear observation box to recover.
Upon the gerbil regaining its righting reflex, the duration of repetitive hind foot tapping was recorded over a 5 minute period. The dose of the test compound required to inhibit by 50% the tapping induced by the NK1 agonist expressed as mg/kg is referred to as the ID50 values.

common marmosets = assay: marmoset human threat test; type: in vivo, common marmoset; conditions: for No. jumps / No. postures: marmoset, oral, 1 h before test; for No. jumps: mean±SEM (n=4), index of locomotor activity; for No. postures: mean±SEM (n=7)
Method: For example the marmoset human threat test (Costall et al., 1988
The study utilised in house laboratory-bred male and female common marmosets over 2 years of age, weighing 300-500 g. The animals were caged in couples, in a housing room maintained at 25±1° C., 60% humidity and a 12 hour light/dark cycle (lights on at 0600, with 30 min simulated dawn and twilight). Testing was carried out with the animals situated in the home cage.
One hour before the test animals were treated orally with vehicle (0.5% HPMC) or test compound (1 ml/kg). After a wash-out period of at least three days, treatments were reassigned and the study was complete when all animals had received all treatments. Number of specific behavioural postures in response to the human threat and the number of jumps were analysed in this study. The postures recorded in the test were those described by Costall et al (1988). and the number of jumps from the back of the cage to the cage front provided an index of locomotor activity to assess potential for sedation or locomotor stimulation.
Results are expressed as mean±SEM (n=7). of number of postures and as a mean±SEM (n=4) of number of jumps. Data were subjected to one-way analysis of variance (ANOVA) followed by Dunnett's test, comparing each compound dose with vehicle treatment, using Statistica software (version 8.0) Statistically significant differences with respect to vehicle are indicated as *P<0.01.

human NK1 receptor [2] = target: T2, human NK1 receptor; assay: NK1 filtration binding assay with [3H]-GR205171 on human NK1-CHO cell membranes; parameters: expressed in transfected cells; conditions: average of five independent experiments, [3H]-GR205171 radioligand, read-out: NK1 binding affinity pKi (converted)
Method: The NK1 binding affinity of the compounds of the invention was determined using the following filtration binding assay using [^3H]-GR205171 as radioligand for human NK1 receptor stably expressed in CHO (Chinese Hamster Ovary) cells (see C. Griffante et al, Br. J. Pharmacol. 2006, 148, 39-45; H. M. Sarau et al, J. Pharmacol. Experimental Therapeutics 2000, 295(1), 373-381 and D. T. Beattie et al., Br. J. Pharmacol. 1995, 116, 3149-3157).
CHO cells stably expressing the human cloned neurokinin NK1 receptor were cultured in Dulbecco's Modified Eagle's Medium/F12 Ham (DMEM/F12Ham) supplemented with 10% foetal bovine serum and 2 mM L-glutamine. Cells were maintained in 5% CO2 in a humidified incubator at 37° C. […]
Binding assay was carried out in 96 deep well polypropylene plates (Whatman) in a volume of 400 μl consisted of 100 μl of incubation buffer (containing 50 mM HEPES, pH 7.4, 3 mM MnCl2, and 0.02% BSA), 4 μl of DMSO (total binding) or increasing concentrations of the compounds in the invention dissolved in DMSO (1 pM-1 μM final concentration), 100 μl of the radioligand [^3H]-GR205171 (0.2 nM final concentration) in incubation buffer and 200 μl of human NK1-CHO cell membranes suspension (4 μg/ml final) in incubation buffer. […] Filterplates were dried and retained radioactivity was counted in a Top Count (Perkin-Elmer). […]

| Compound | Ki (human NK3 receptor) [nM] | Ki (human NK1 receptor [1]) [nM] | Ki (human NK2 receptor) [nM] | GR73632-induced Foot Tapping behaviour (NK1 receptor; gerbil, 0.3, 1.0 and 3.0 mg/kg p.o (P<0.01)) | ID50 as plasma concentration (NK1 receptor; gerbil, p.o., GR73632 icv) | ED50 (NK1 receptor; po, gerbil, p.o., GR73632 icv, read-out: ID50, dose inhibiting by 50% the foot tapping induced by the NK1 agonist) [mg/kg] | effect on number of postures (anxiolytic effect) (common marmosets; marmoset, 0.1, 0.3 or 1 mg/kg oral, significant at 0.3 and 1 mg/kg (P<0.01), no reduction in number of jumps) | No. jumps (common marmosets; 0.1 mg/kg) | No. postures (common marmosets; 0.1 mg/kg) | No. jumps (common marmosets; 0.3 mg/kg) | No. postures (common marmosets; 0.3 mg/kg, *P<0.01 vs vehicle) | No. jumps (common marmosets; 1 mg/kg) | No. postures (common marmosets; 1 mg/kg, *P<0.01 vs vehicle) | Ki (human NK1 receptor [2]) [nM] |
| --- | --- | --- | --- | --- | --- | --- | --- | --- | --- | --- | --- | --- | --- | --- |
| Cc1cc(F)ccc1-c1cc([C@@H]2CC[C@](C)(C(N)=O)N2)ncc1N(C)C(=O)C(C)(C)c1cc(C(F)(F)F)cc(C(F)(F)F)c1 [Example 6, (5S)-5-[5-[{2-[3,5-bis(trifluoromethyl)phenyl]-2-methylpropanoyl}(methyl)amino]-4-(4-fluoro-2-methylphenyl)-2-pyridinyl]-2-methyl-D-prolinamide hydrochloride] | 158 | < 0.17 |  |  |  |  |  |  |  |  |  |  |  |  |
| Cc1cc(F)ccc1-c1cc([C@H]2CC[C@](C)(C(N)=O)N2)ncc1N(C)C(=O)C(C)(C)c1cc(C(F)(F)F)cc(C(F)(F)F)c1 [Example 11, (5R)-5-[5-[{2-[3,5-bis(trifluoromethyl)phenyl]-2-methylpropanoyl}(methyl)amino]-4-(4-fluoro-2-methylphenyl)-2-pyridinyl]-2-methyl-D-prolinamide bis-hydrochloride] | 31.6 | 0.0794 | > 1000 | significantly attenuated | approximately 5 ng/ml plasma | ~0.2 | dose dependent reduction in the number of postures | 20.1 ± 2.1 | 9.4 ± 1.0 | 13.4 ± 2.5 | *6.3 ± 0.9 | 13.0 ± 2.1 | *4.0 ± 0.4 | 0.132 |
| Cc1cc(F)ccc1-c1cc([C@H]2CC[C@@](C)(C(N)=O)N2)ncc1N(C)C(=O)C(C)(C)c1cc(C(F)(F)F)cc(C(F)(F)F)c1 [Example 4, (5R)-5-[5-[{2-[3,5-bis(trifluoromethyl)phenyl]-2-methylpropanoyl}(methyl)amino]-4-(4-fluoro-2-methylphenyl)-2-pyridinyl]-2-methyl-L-prolinamide hydrochloride] | 63.1 | < 0.17 |  |  |  |  |  |  |  |  |  |  |  |  |
| Cc1cc(F)ccc1-c1cc([C@H]2CC[C@](C)(C(N)=O)N2)ncc1N(C)C(=O)C(C)(C)c1cc(C(F)(F)F)cc(C(F)(F)F)c1 [Example 2, (5R)-5-[5-[{2-[3,5-bis(trifluoromethyl)phenyl]-2-methylpropanoyl}(methyl)amino]-4-(4-fluoro-2-methylphenyl)-2-pyridinyl]-2-methyl-D-prolinamide hydrochloride] | 79.4 | < 0.17 |  |  |  |  |  |  |  |  |  |  |  |  |
